# Measurements reported in paper PMC2593629 (Bioorganic & medicinal chemistry letters, 2008).
# Read-outs that look alike come from different tables or passages of the source.
# What was measured:
# [1] = system: mice; conditions: mouse
# [2] = molecular target: T1, CB1 (Mus musculus, UniProt P47746); assay: biochemical
# [3] = system: CB1 -/- mouse brain membranes; format: biochemical
# [4] = molecular target: eCB1 (CB1 overexpressed in HEK293 cells) (Mus musculus, UniProt P47746); format: binding
# Sequence of eCB1 (CB1 overexpressed in HEK293 cells) (P47746 whole entry): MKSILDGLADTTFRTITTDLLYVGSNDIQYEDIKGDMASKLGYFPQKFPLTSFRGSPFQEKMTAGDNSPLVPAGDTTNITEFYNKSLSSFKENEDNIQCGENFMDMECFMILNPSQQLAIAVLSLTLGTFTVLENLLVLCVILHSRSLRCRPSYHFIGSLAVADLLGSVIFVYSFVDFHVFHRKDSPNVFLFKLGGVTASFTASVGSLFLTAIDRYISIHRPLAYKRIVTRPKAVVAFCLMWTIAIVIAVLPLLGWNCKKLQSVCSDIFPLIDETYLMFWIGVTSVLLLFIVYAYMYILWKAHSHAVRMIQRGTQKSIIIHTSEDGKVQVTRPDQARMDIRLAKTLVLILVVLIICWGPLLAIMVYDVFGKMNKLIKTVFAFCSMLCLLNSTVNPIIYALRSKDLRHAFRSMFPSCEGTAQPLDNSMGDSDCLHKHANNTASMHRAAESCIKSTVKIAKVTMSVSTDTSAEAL
# [5] = molecular target: T2, mouse brain MAGL (Mus musculus, UniProt O35678); assay: MAGL activity in mouse brain membranes; format: biochemical; conditions: read-out: MAGL IC50
# T2 sequence (O35678 1-303): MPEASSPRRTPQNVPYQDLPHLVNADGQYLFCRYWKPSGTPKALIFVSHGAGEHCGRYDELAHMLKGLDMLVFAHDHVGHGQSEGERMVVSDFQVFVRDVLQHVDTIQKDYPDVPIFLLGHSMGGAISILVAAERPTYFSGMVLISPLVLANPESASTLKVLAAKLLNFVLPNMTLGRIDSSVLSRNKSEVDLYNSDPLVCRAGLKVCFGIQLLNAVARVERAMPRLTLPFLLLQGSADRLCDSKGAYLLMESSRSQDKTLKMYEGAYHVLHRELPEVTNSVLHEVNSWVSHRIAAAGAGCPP
# [6] = molecular target: T1, CB1; assay: biochemical; format: binding
# T1 sequence (P47746 whole entry): as the sequence (P47746 whole entry) above
compound,measurement,setting,value
CCCCCCCCCCCCP(=O)(OCC)Oc1nc(Cl)c(Cl)cc1Cl (centres unmarked) [OP 3],In vivo effectiveness in modulating behavior and brain 2-AG and AA levels,[1],not effective in vivo
"CCCCC/C=C\C/C=C\C/C=C\C/C=C\CCCC(=O)OC(CO)CO [2-AG, 2-arachidonoylglycerol]",EC50,[2]; EC50 for stimulation of GTPγS binding,1000 nM
same,EC50,[2]; EC50 of 2-AG for stimulation of GTPγS binding after preincubation with OP 1,300 nM
same,Stimulation of GTPγS binding in CB1 -/- membranes,[3],significant
CCCCCCCCCCCCS(=O)(=O)F [OS 9],In vivo effectiveness in modulating behavior and brain 2-AG and AA levels,[1],same in vivo effects as OP 1 and OP 4
"CCOP(=O)(OCC)Oc1nc(Cl)c(Cl)cc1Cl [OP 7, chlorpyrifos oxon]",Sensitivity of eCB1 [3H]CP55940 binding,[4],not sensitive
CCCCCCCCCCCCP(=O)(OCC)Oc1ccc(C#N)cc1 (centres unmarked) [OP 4],In vivo effectiveness in modulating behavior and brain 2-AG and AA levels,[1],very effective in vivo in all respects
same,IC50,[5]; substrate 2-AG,70 nM
same,IC50,[5]; substrate [14C]1-oleoylglycerol,70 nM
CCCCCCCCS(=O)(=O)F [OS 10],In vivo effectiveness in modulating behavior and brain 2-AG and AA levels,[1],same in vivo effects as OP 1 and OP 4
CCCCCCC(C)(C)c1ccc([C@@H]2C[C@H](O)CC[C@H]2CCCO)c(O)c1 [[^3H]CP55940],Kd,[6],0.86 nM
